The data set can be described thus: Plasma CBD after IV administration. In kind it is in vivo, BALB/C mice. To be noted: mice, IV 12 mg/kg. As for the experimental part:
A total of 18 female BALB/C mice aged 12 weeks were injected IV with a single dose of 12 mg/kg CBD formulation in cremophor:ethanol.
At the time-points detailed below, 3 mice were euthanized with CO2 and terminal blood was immediately collected from the retro-orbital sinus in labeled 0.5 ml K3 EDTA blood collection tubes (Mini Collect, Greiner-bio-one, Austria). The blood was centrifuged at 2000×g for 10 minutes before plasma was extracted, collected in labeled tubes and frozen at −20° C. immediately after collection. The samples were then stored at −80° C. pending analysis.
Time-points for the blood collection: 2 min, 1, 4, 8, 24 and 48 h.
CBD was extracted from plasma samples that were spiked with cannabigerol (CBG, 1 mg/ml in methanol, Sigma, Cat. C-141-1 Add lot) used as internal standard (IS) followed by dilution of the plasma five-fold in acetonitrile. After vigorous vortex it was centrifuged, and the upper phase was analyzed. Final IS concentration in the samples was 100 ng/ml.
Plasma extracts were analyzed by LC/MS method (Sciex (Framingham, MA, USA) Triple Quad™ 5500 mass spectrometer coupled with a Shimadzu (Kyoto, Japan) UHPLC System). The concentrations were calculated based on a calibration curve of CBD in plasma at a range of 1-1,000 ng/ml having 100 ng/ml of Internal Standard (IS).

In the case of `C=C(C)[C@@H]1CCC(C)=C[C@H]1c1c(O)cc(CCCCC)cc1O` [free CBD, 2-[(1R,6R)-6-Isopropenyl-3-methylcyclohex-2-en1-yl]-5-pentylbenzene-1,3-diol], the “Plasma CBD Mean ± SD” value was “BLOD” (24 h); “below the limit of detection” (24 h, listed as CBD); “BLOD” (48 h); “below the limit of detection” (48 h, listed as CBD).

The values above are taken from patent US20240009209A1, “PROTEIN-BOUND CANNABINOID FORMULATIONS AND USES THEREOF” (YISSUM RESEARCH DEVELOPMENT COMPANY OF THE HEBREW …, priority 2020, published 2024).
